Results published in patent publication US7812053B2, “4-((phenoxyalkyl)thio)-phenoxyacetic acids and analogs” (Janssen Pharmaceuticals NV, priority 2004, dated 2010).
pEC50: −log10 of the molar value. Values joined by “and” are separate entries in the source; they are usually repeats but may differ in a detail not shown here. Equal values may be shown once.

How the values were obtained:
[1] = molecular target: T1, PPARγ ligand binding domain fused to the yeast GAL4 DNA binding domain (Homo sapiens, UniProt P37231); test: Transfection assay for PPAR receptors (GAL4-LBD luciferase reporter), PPAR gamma; format: cell-based; settings: HEK293 cells, GAL4 (UAS) luciferase reporter, 18-24 hrs
T1 construct: expressed in transfected cells; host or cells: HEK293
T1 sequence (P37231 238-503 limits assumed): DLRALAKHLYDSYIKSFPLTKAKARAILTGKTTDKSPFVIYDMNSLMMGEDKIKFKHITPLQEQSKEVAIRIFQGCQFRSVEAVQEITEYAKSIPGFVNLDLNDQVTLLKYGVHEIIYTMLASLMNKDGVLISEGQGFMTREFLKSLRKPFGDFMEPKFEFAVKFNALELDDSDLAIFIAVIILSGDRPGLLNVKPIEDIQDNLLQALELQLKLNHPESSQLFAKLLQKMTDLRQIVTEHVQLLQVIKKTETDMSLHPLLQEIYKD
Description: (§1) Transfection Assay Method for PPAR Receptors
(§2) HEK293 cells were grown in DMEM/F12 medium supplemented with 10% FBS and glutamine (Invitrogen) and incubated in a 5% CO2 incubator at 37° C. The cells were co-transfected using DMRIE-C reagent (Invitrogen) in serum free medium (Opti-MEM, Invitrogen) with two mammalian expression plasmids, one containing the DNA sequence coding for the ligand binding domains of either PPARα, γ or δ fused to the yeast GAL4 DNA binding domain and the other containing the promoter sequence of the yeast GAL4 (UAS) fused to the firefly luciferase cDNA reporter. The next day, the medium was changed to DMEM/F12 medium supplemented with 5% charcoal treated serum (Hyclone) and glutamine. After 6 hrs the cells were trypsinized and seeded at a density of 50,000 cells/well into 96 well plates and incubated overnight as above. The cells were then treated with test compounds or vehicle and incubated for 18-24 hrs as above. Luciferase reporter activity was measured using the Steady-Glo Luciferase Assay Kit from Promega. DMRIE-C Reagent was purchased from GIBCO Cat. No. 10459-014. OPTI-MEM I Reduced Serum Medium was purchased from GIBCO (Cat. No. 31985). Steady-Glo Luciferase Assay Kit was purchased from Promega (Part# E254B).
A variety of example compounds have been made and tested, with a range of in vitro results. […]

[2] = molecular target: T2, PPARδ ligand binding domain fused to the yeast GAL4 DNA binding domain (Homo sapiens, UniProt Q03181); test: Transfection assay for PPAR receptors (GAL4-LBD luciferase reporter), PPAR delta; format: cell-based; settings: HEK293 cells, GAL4 (UAS) luciferase reporter, 18-24 hrs; multiple values = multiple measurements
T2 construct: expressed in transfected cells; host or cells: HEK293
T2 sequence (Q03181 211-439 limits assumed): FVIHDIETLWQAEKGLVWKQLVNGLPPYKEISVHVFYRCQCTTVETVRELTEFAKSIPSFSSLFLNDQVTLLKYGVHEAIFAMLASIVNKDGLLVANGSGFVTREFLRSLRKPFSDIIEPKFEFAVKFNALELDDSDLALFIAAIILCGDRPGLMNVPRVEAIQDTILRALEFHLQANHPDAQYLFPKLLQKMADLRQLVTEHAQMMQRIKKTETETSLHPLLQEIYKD
Description: as §1, §2
(§3) A variety of example compounds have been made and tested, with a range of in vitro results. Below are representative compounds and data; in some cases, where multiple EC50's are shown, multiple measurements were taken. Naturally, different compounds in Formula (I) may have not have activities identical to any one compound below.

[3] = molecular target: T3, PPARα ligand binding domain fused to the yeast GAL4 DNA binding domain (Homo sapiens, UniProt Q07869); test: Transfection assay for PPAR receptors (GAL4-LBD luciferase reporter), PPAR alpha; format: cell-based; settings: HEK293 cells, GAL4 (UAS) luciferase reporter, 18-24 hrs
T3 construct: expressed in transfected cells; host or cells: HEK293
T3 sequence (Q07869 239-466 limits assumed): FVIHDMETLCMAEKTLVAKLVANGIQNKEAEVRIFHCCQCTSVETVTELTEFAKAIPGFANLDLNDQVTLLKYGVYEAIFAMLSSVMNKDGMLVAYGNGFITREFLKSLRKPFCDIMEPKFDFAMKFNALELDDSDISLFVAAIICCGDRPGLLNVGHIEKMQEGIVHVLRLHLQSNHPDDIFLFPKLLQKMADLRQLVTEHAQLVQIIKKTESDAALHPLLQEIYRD
Description: as §1, §2, §3

[4] = test system: differentiated THP-1 monocytes; settings: cited from earlier work

CCC(COc1ccc(C(F)(F)F)cc1)CSc1ccc(OC(C)(C)C(=O)O)c(C)c1 (stereo not shown) [Compound 2, 2-Methyl-2-{2-methyl-4-[2-(4-trifluoromethyl-phenoxymethyl)-butylsulfanyl]-phenoxy}-propionic acid]
pEC50 [1]: 6.56
pEC50 [2]: 8.04 and 7.95
pEC50 [3]: 6.63

Cc1cc(SCc2sc(-c3ccc(C(F)(F)F)cc3)nc2C)ccc1OCC(=O)O [GW501516]
ABCA1 mRNA expression [4]: induced ABCA1 mRNA expression
cholesterol efflux [4]: enhanced cholesterol efflux

CCOC(COc1ccc(C(F)(F)F)cc1)CSc1ccc(OC(C)(C)C(=O)O)c(C)c1 (stereo not shown) [Compound 3, 2-{4-[2-Ethoxy-3-(4-trifluoromethyl-phenoxy)-propylsulfanyl]-2-methyl-phenoxy}-2-methyl-propionic acid]
pEC50 [1]: 6.25
pEC50 [2]: 7.47 and 7.56
pEC50 [3]: 6.27

CCC(COc1ccc(C(F)(F)F)cc1)CSc1ccc(OC(C)C(=O)O)c(C)c1 (stereo not shown) [Compound 1, 2-{2-Methyl-4-[2-(4-trifluoromethyl-phenoxymethyl)-butylsulfanyl]-phenoxy}-propionic acid]
pEC50 [2]: 7.86 and 7.83
pEC50 [3]: 6.26
